Test results: US10308632B2, “Antifungal compounds and processes for making” (VPS-3, Inc., priority 2015, dated 2019)

How the values were obtained:
Format in all cases: physicochemical
[1] = Gravimetric/dynamic vapor sorption (GVS/DVS) moisture sorption isotherm; conditions: for GVS hysteresis: 0-90% RH range; for moisture uptake by GVS: at 90% RH; for GVS water uptake: over 0-90% RH range, 25° C.; for XRPD post GVS: sample re-analysed by XRPD after isotherm
Procedure: Gravimetric Vapor Sorption (GVS) isotherms were obtained using a SMS DVS Intrinsic moisture sorption analyser, controlled by DVS Intrinsic Control software v1.0.1.2 (or v 1.0.1.3). The sample temperature was maintained at 25° C. by the instrument controls. The humidity was controlled by mixing streams of dry and wet nitrogen, with a total flow rate of 200 mL/min The relative humidity was measured by a calibrated Rotronic probe (dynamic range of 1.0-100% RH), located near the sample. The weight change, (mass relaxation) of the sample as a function of % RH was constantly monitored by the microbalance (accuracy ±0.005 mg). Typically. 10-15 mg of sample was placed in a tared mesh stainless steel basket under ambient conditions. The sample was loaded and unloaded at 40% RH and 25° C. (typical room conditions). A moisture sorption isotherm was performed as outlined below (2 scans giving 1 complete cycle). The standard isotherm was performed at 25° C. at 10% RH intervals over a 0-90% RH range. Data analysis was undertaken in Microsoft Excel using DVS Analysis Suite v6.2 (or 6.1 or 6.0). [table] The sample was recovered after completion of the isotherm and re-analysed by XRPD.

[2] = XRPD stability after 7 days storage at elevated humidity
Procedure: X-Ray Powder Diffraction patterns were collected on a Bruker AXS C2 GADDS diffractometer using Cu Kα radiation (40 kV, 40 mA), automated XYZ stage, laser video microscope for auto-sample positioning and a HiStar 2-dimensional area detector. X-ray optics consists of a single Göbel multilayer mirror coupled with a pinhole collimator of 0.3 mm. A weekly performance check is carried out using a certified standard NIST 1976 Corundum (flat plate). The beam divergence, i.e. the effective size of the X-ray beam on the sample, was approximately 4 mm. A Θ-Θ continuous scan mode was employed with a sample—detector distance of 20 cm which gives an effective […] of 3.2°-29.7°. Typically the sample would be exposed to the X-ray beam for 120 seconds. The software used for data collection was GADDS for XP/2000 4.1.43 and the data were analysed and presented using Diffrac Plus EVA v13.0.0.2 or v15.0.0.0. Samples run under ambient conditions were prepared as flat plate specimens using powder as received without grinding. Approximately 1-2 mg of the sample was lightly pressed on a glass slide to obtain a flat surface. Samples run under non-ambient conditions were mounted on a silicon wafer with heat-conducting compound. The sample was then heated to the appropriate temperature at 30° C./min and subsequently held isothermally for 1 minute before data collection was initiated. X-Ray Powder Diffraction patterns were also collected on a Bruker D8 diffractometer using Cu Kα radiation (40 kV, 40 mA), θ-2θ goniometer, and divergence of V4 and receiving slits, a Ge monochromator and a Lynxeye detector. The instrument is performance checked using a certified Corundum standard (NIST 1976). The software used for data collection was Diffrac Plus XRD Commander v2.6.1 and the data were analysed and presented using Diffrac Plus EVA v15.0.0.0. Samples were run under ambient conditions as flat plate specimens using powder as received. The sample was gently packed into a cavity cut into polished, zero-background (510) silicon wafer. The sample was rotated in its own plane during analysis. The details of the data collection are: Angular range: 2 to 42° 2 θ; Step size: 0.05° 2θ; Collection time: 0.5 s/step.

[3] = Thermo-gravimetric analysis (TGA), decomposition onset; conditions: heated at 10° C./min
Procedure: Thermo-gravimetric analysis (TGA) data were collected on a TA Instruments Discovery TGA, equipped with a 25 position auto-sampler. The instrument was temperature calibrated using certified alumel and nickel. Typically, 3-10 mg of each sample was loaded onto a pre-tared aluminium pan and heated at 10° C./min from ambient temperature to 350° C. A nitrogen purge at 25 mL/min was maintained over the sample. The instrument control and data analysis software was TRIOS v3.2.0.3877.

[4] = Competitive slurry experiments of Form 1 and Form 2 (thermodynamic stability); conditions: temperature range investigated (5° C., 25° C., 50° C.)
Procedure: The melt of Form 1 of compound 5 was determined by DSC to be at 129.0° C. with an enthalpy of −46 J/g. A melt endotherm was not determined for Form 2 as it transforms to Form 1 upon heating at different rates. […] These experiments were performed in IPA, ethanol and toluene. To conduct these experiments a solid mixture of Forms 1 and 2 (<18 mg per sample) was suspended in the corresponding saturated solution of compound 5 and stirred at the desired temperature. Saturated solutions of compound 5 were prepared at 50° C. by dissolving 40 mg, 60 mg and 200 mg of sample in 1.4 mL of IPA, 0.8 mL of ethanol and 0.8 mL of toluene, respectively. The slurries were filtered, air-dried and analyzed by XRPD after stirring for up to 10 days at the desired temperature. […] All the experiments except for that performed in IPA at 5° C. gave pure Form 1.

[5] = Variable temperature XRPD (VT-XRPD), polymorph conversion; conditions: upon heating
Procedure: X-Ray Powder Diffraction patterns were collected on a Bruker AXS C2 GADDS diffractometer using Cu Kα radiation (40 kV, 40 mA), automated XYZ stage, laser video microscope for auto-sample positioning and a HiStar 2-dimensional area detector. X-ray optics consists of a single Göbel multilayer mirror coupled with a pinhole collimator of 0.3 mm. A weekly performance check is carried out using a certified standard NIST 1976 Corundum (flat plate). The beam divergence, i.e. the effective size of the X-ray beam on the sample, was approximately 4 mm. A Θ-Θ continuous scan mode was employed with a sample—detector distance of 20 cm which gives an effective […] of 3.2°-29.7°. Typically the sample would be exposed to the X-ray beam for 120 seconds. The software used for data collection was GADDS for XP/2000 4.1.43 and the data were analysed and presented using Diffrac Plus EVA v13.0.0.2 or v15.0.0.0. Samples run under ambient conditions were prepared as flat plate specimens using powder as received without grinding. Approximately 1-2 mg of the sample was lightly pressed on a glass slide to obtain a flat surface. Samples run under non-ambient conditions were mounted on a silicon wafer with heat-conducting compound. The sample was then heated to the appropriate temperature at 30° C./min and subsequently held isothermally for 1 minute before data collection was initiated. […]

GVS hysteresis [1] | moisture uptake by GVS [1] [%] | GVS water uptake [1] | XRPD post GVS [1] | XRPD stability post 7 days ([2]; 25° C. & 96% RH) | XRPD stability post 7 days ([2]; 40° C. & 75% RH) | stability after 7 days storage at elevated humidity conditions [2] | TGA decomposition onset [3] | thermodynamic stability of the pair Form 1/Form 2 [4] | VT-XRPD: conversion to Form 1 starts at [5] | SMILES
(slight hysteresis observed) | ~1.3 | ca. 1.3% water uptake over | unchanged | Unchanged by XRPD | Unchanged by XRPD | stable | Decomposition onset at ~200 °C | thermodynamically stable form |  | N#Cc1ccc(COc2ccc(C#Cc3ccc(C(F)(F)[C@](O)(Cn4cnnn4)c4ccc(F)cc4F)nc3)cc2)cc1 [Compound 5 (Anhydrous Form 1)]
(no hysteresis observed) | ~0.7 | ca. 0.7% water uptake over | unchanged | Unchanged by XRPD | Unchanged by XRPD | remained stable | Decomposition onset at ~200 °C |  | at 105 °C | N#Cc1ccc(COc2ccc(C#Cc3ccc(C(F)(F)[C@](O)(Cn4cnnn4)c4ccc(F)cc4F)nc3)cc2)cc1 [Compound 5 (Anhydrous Form 2)]
(no hysteresis observed) | ~1.6 | ca. 1.6% water uptake over | unchanged | Unchanged by XRPD | Unchanged by XRPD | stable | Decomposition onset at ~300 °C |  |  | N#Cc1ccc(COc2ccc(C#Cc3ccc(C(F)(F)[C@](O)(Cn4cnnn4)c4ccc(F)cc4F)nc3)cc2)cc1 [Compound 14]
